Several values for one entry are separate records, joined by “and”; a condition that tells them apart may be missing. Equal entries are not always repeated. Structures can show the parent of a compound that is named as a salt.
Experiment: in situ brain/choroid plexus perfusion: CNS uptake of [^3H]-arginine, [^3H]-ADMA and [^14C]-sucrose (multiple-time and single-time uptake analysis)
Conditions: for uptake into caudate nucleus / uptake into choroid plexus / uptake into frontal cortex / uptake into occipital cortex / Kp at 30 min, 62.5 nM: 30 mins; for Kp at […] / Kp at 20 min, 62.5 nM / Kp at 30 min, 62.5 nM / Kp at 10 min, 62.5 nM / Kp at […], 62.5 nM / Kp at 10 min: male, BALB/c, mouse; for Kp at […] / Kp at […], 62.5 nM: 2.5 mins
[1] = CONTROL, 10 mins, Balb/c ♂, 5ml/min, mean
[2] = [3H] ADMA + [14C] Sucrose, Balb/c ♂, 5ml/min, individual mice
[3] = [3H] ADMA + [14C] Sucrose, Balb/c ♂, 5ml/min, mean
[4] = CSF, Difference (ADMA minus Sucrose), 5ml/min, mean
[5] = CSF, [3H] ADMA and [14C] Sucrose uptake, 5ml/min, mean
[6] = caudate nucleus, Difference (ADMA minus Sucrose), 5ml/min, mean
[7] = caudate nucleus, [3H] ADMA and [14C] Sucrose uptake, 5ml/min, mean
[8] = cerebellum, Difference (ADMA minus Sucrose), 5ml/min, mean
[9] = cerebellum, [3H] ADMA and [14C] Sucrose uptake, 5ml/min, mean
[10] = choroid plexus, Difference (ADMA minus Sucrose), 5ml/min, mean
[11] = choroid plexus, [3H] ADMA and [14C] Sucrose uptake, 5ml/min, mean
[12] = frontal cortex, Difference (ADMA minus Sucrose), 5ml/min, mean
[13] = frontal cortex, [3H] ADMA and [14C] Sucrose uptake, 5ml/min, mean
[14] = hippocampus, Difference (ADMA minus Sucrose), 5ml/min, mean
[15] = hippocampus, [3H] ADMA and [14C] Sucrose uptake, 5ml/min, mean
[16] = hypothalamus, Difference (ADMA minus Sucrose), 5ml/min, mean
[17] = hypothalamus, [3H] ADMA and [14C] Sucrose uptake, 5ml/min, individual mouse
[18] = hypothalamus, [3H] ADMA and [14C] Sucrose uptake, 5ml/min, mean
[19] = occipital cortex, Difference (ADMA minus Sucrose), 5ml/min, mean
[20] = occipital cortex, [3H] ADMA and [14C] Sucrose uptake, 5ml/min, mean
[21] = pineal gland, Difference (ADMA minus Sucrose), 5ml/min, mean
[22] = pineal gland, [3H] ADMA and [14C] Sucrose uptake, 5ml/min, mean
[23] = pituitary gland, Difference (ADMA minus Sucrose), 5ml/min, mean
[24] = pituitary gland, [3H] ADMA and [14C] Sucrose uptake, 5ml/min, mean
[25] = pons, Difference (ADMA minus Sucrose), 5ml/min, mean
[26] = pons, [3H] ADMA and [14C] Sucrose uptake, 5ml/min, mean
[27] = thalamus, Difference (ADMA minus Sucrose), 5ml/min, mean
[28] = thalamus, [3H] ADMA and [14C] Sucrose uptake, 5ml/min, individual mouse
[29] = thalamus, [3H] ADMA and [14C] Sucrose uptake, 5ml/min, mean

Protocol: All animals used in procedures were adult male BALB/c mice (between 23 g and 25 g) sourced from Harlan Laboratories, Oxon, UK, unless otherwise stated.
Animals were weighed immediately before the administration of the anaesthetic to ensure correct dosage. Domitor® (medetomidine hydrochloride) and Vetalar® (ketamine) were both purchased from Harlan Laboratories (Cambridge, UK). All animals were terminally anaesthetised (2 mg/kg Domitor® and 150 mg/kg Vetalar® injected intraperitoneally), and a lack of self-righting and paw-withdrawal reflexes (as surrogate indicators of consciousness) thoroughly checked prior to and during all procedures. If needed, additional anaesthetic was administered via the same route. […] At the end of the in situ brain perfusion procedure the animal was killed by decapitated under non-recovery anaesthesia. Animals were heparinised with 100 units heparin (in 0.9% m/v NaCl(aq), Harlan Laboratories; Oxon, UK), administered via the intraperitoneal route prior to surgery.
The in situ brain/choroid plexus perfusion method is designed to directly perfuse the brain with artificial plasma via a cannula placed in the heart. Artificial plasma is prepared to mimic the ionic composition of blood, and transporter inhibitors can be added in known concentrations and delivered to the brain for defined periods of time.
The left ventricle of the heart was cannulated with a 25G x 10 mm butterfly-winged needle connected to the perfusion circuit. […] The right atrium of the heart was sectioned to allow outflow of the artificial plasma. […] Radiolabelled and unlabelled test molecules were infused into the inflowing artificial plasma for periods up to 30 minutes.
At the set perfusion time a CSF sample was taken by inserting a pulled glass micropipette connected to silicon tubing and a syringe into the cisterna magna. Gentle suction was applied, and CSF was withdrawn. Only clear CSF samples were processed and taken for analysis. Samples contaminated with blood were discarded. The animal was then decapitated and the brain removed. Specific brain samples including the circumventricular organs (CVOs) were taken using a Leica S4E L2 stereomicroscope (Leica; Buckinghamshire, UK). The brain samples included the frontal cortex, caudate nucleus, occipital cortex, hippocampus, hypothalamus, thalamus, pons and cerebellum. The CVOs included the choroid plexus, pituitary gland and pineal gland.
All samples (brain regions, capillary depletion brain homogenate, pellet and supernatant, CVOs, CSF and plasma samples) were solubilised in 0.5 mL tissue solubiliser (Solvable; Perkin-Elmer; Boston, MA, USA). After incubating the samples at room temperature for 48 h, 4 mL scintillation fluid (Lumasafe®; Perkin-Elmer; Boston, MA, USA) was added to each before vigorous vortexing.

- Difference (ADMA minus Sucrose), thalamus [1]: 0.21
- [3H] ADMA and [14C] Sucrose uptake, caudate nucleus [1]: 0.2609
- [3H] ADMA and [14C] Sucrose uptake, cerebellum [1]: 0.1856
- [3H] ADMA and [14C] Sucrose uptake, choroid plexus [1]: 2.881
- [3H] ADMA and [14C] Sucrose uptake, hippocampus [1]: 0.2336
- [3H] ADMA and [14C] Sucrose uptake, hypothalamus [1]: 0.341
- [3H] ADMA and [14C] Sucrose uptake, occipital cortex [1]: 0.2471
- [3H] ADMA and [14C] Sucrose uptake, pituitary gland [1]: 1.982
- [3H] ADMA and [14C] Sucrose uptake, pons [1]: 0.2825
- [3H] ADMA and [14C] Sucrose uptake, thalamus [1]: 0.2291
- [3H] ADMA and [14C] Sucrose uptake, frontal cortex (CONTROL, 10 mins, Balb/c ♂, 5ml/min, mean, in mL/100 g): 0.273
- uptake into caudate nucleus [3]: 0.1344
- uptake into choroid plexus [3]: 0.5624
- uptake into frontal cortex [3]: 0.1398
- uptake into occipital cortex [3]: 0.139
- Kp at […] [4]: 0.034
- Kp at 20 min, 62.5 nM (CSF, Difference (ADMA minus Sucrose), 5ml/min, individual mouse): 0.197
- Kp at 20 min, 62.5 nM [4]: 0.225
- Kp at 30 min, 62.5 nM [4]: 0.349
- Kp at 10 min, 62.5 nM (CSF, Difference (ADMA minus Sucrose), CONTROL, 10 mins, 5ml/min, mean): 0.267
- Kp at […] [5]: 0.122
- Kp at 20 min, 62.5 nM [5]: 0.433
- Kp at 10 min, 62.5 nM (CSF, [3H] ADMA and [14C] Sucrose uptake, CONTROL, 10 mins, 5ml/min, mean): 0.273
- Kp at 30 min, 62.5 nM (CSF, uptake into CSF, [3H] ADMA + [14C] Sucrose, Balb/c ♂, 5ml/min, mean): 0.721
- Kp at […], 62.5 nM [6]: 0.0936
- Kp at 20 min, 62.5 nM [6]: 0.256
- Kp at […], 62.5 nM [7]: 0.107
- Kp at 20 min, 62.5 nM [7]: 0.28
- Kp at […] [8]: 0.0947
- Kp at 20 min, 62.5 nM [8]: 0.273
- Kp at […] [9]: 0.112
- Kp at 20 min, 62.5 nM [9]: 0.3
- Kp at […], 62.5 nM [10]: 0.671
- Kp at 20 min, 62.5 nM [10]: 1.92
- Kp at […], 62.5 nM (choroid plexus, [3H] ADMA and [14C] Sucrose uptake, 5ml/min, individual mouse): 0.645
- Kp at […], 62.5 nM [11]: 0.855
- Kp at 20 min, 62.5 nM [11]: 2.24
- Kp at […], 62.5 nM (frontal cortex, Difference (ADMA minus Sucrose), 5ml/min, individual mouse): 0.0723
- Kp at […], 62.5 nM [12]: 0.0986
- Kp at 20 min, 62.5 nM [12]: 0.276
- Kp at […], 62.5 nM (frontal cortex, [3H] ADMA and [14C] Sucrose uptake, 5ml/min, individual mouse): 0.0847
- Kp at […], 62.5 nM [13]: 0.113
- Kp at 20 min, 62.5 nM [13]: 0.302
- Kp at […], 62.5 nM (hippocampus, Difference (ADMA minus Sucrose), 5ml/min, individual mouse): 0.0843
- Kp at […], 62.5 nM [14]: 0.1
- Kp at 20 min, 62.5 nM [14]: 0.254
- Kp at […], 62.5 nM (hippocampus, [3H] ADMA and [14C] Sucrose uptake, 5ml/min, individual mouse): 0.0898
- Kp at […], 62.5 nM [15]: 0.109
- Kp at 20 min, 62.5 nM [15]: 0.273
- Kp at […] (hypothalamus, Difference (ADMA minus Sucrose), 5ml/min, individual mouse): 0.0965
- Kp at […] [16]: 0.0993
- Kp at 20 min, 62.5 nM [16]: 0.364
- Kp at […] [17]: 0.114
- Kp at […] [18]: 0.127
- Kp at 20 min, 62.5 nM [17]: 0.38
- Kp at 20 min, 62.5 nM [18]: 0.416
- Kp at […], 62.5 nM (occipital cortex, Difference (ADMA minus Sucrose), 5ml/min, individual mouse): 0.0744
- Kp at […], 62.5 nM [19]: 0.086
- Kp at 20 min, 62.5 nM [19]: 0.268
- Kp at […], 62.5 nM (occipital cortex, [3H] ADMA and [14C] Sucrose uptake, 5ml/min, individual mouse): 0.083
- Kp at […], 62.5 nM [20]: 0.0969
- Kp at 20 min, 62.5 nM [20]: 0.293
- Kp at […], 62.5 nM [21]: 0.235
- Kp at 20 min, 62.5 nM [21]: 0.986
- Kp at 30 min, 62.5 nM [21]: 0.416
- Kp at 10 min (pineal gland, Difference (ADMA minus Sucrose), CONTROL, 10 mins, 5ml/min, mean): 1.94
- Kp at […], 62.5 nM [22]: 0.527
- Kp at 20 min, 62.5 nM [22]: 1.32
- Kp at 10 min (pineal gland, [3H] ADMA and [14C] Sucrose uptake, CONTROL, 10 mins, 5ml/min, mean): 2.56
- Kp at 30 min, 62.5 nM (pineal gland, uptake into pineal gland, [3H] ADMA + [14C] Sucrose, Balb/c ♂, 5ml/min, mean): 0.614
- Kp at […] [23]: 0.585
- Kp at 20 min, 62.5 nM [23]: 1.19
- Kp at […] [24]: 0.761
- Kp at 20 min, 62.5 nM [24]: 1.4
- Kp at […] [25]: 0.0907
- Kp at 20 min, 62.5 nM [25]: 0.306
- Kp at […] (pons, [3H] ADMA and [14C] Sucrose uptake, 5ml/min, individual mouse): 0.0924
- Kp at […] [26]: 0.117
- Kp at 20 min, 62.5 nM [26]: 0.347
- Kp at […] (thalamus, Difference (ADMA minus Sucrose), 5ml/min, individual mouse): 0.0741
- Kp at […] [27]: 0.0969
- Kp at 20 min, 62.5 nM [27]: 0.282
- Kp at […] [28]: 0.0799
- Kp at […] [29]: 0.108
- Kp at 20 min, 62.5 nM [28]: 0.331
- Kp at 20 min, 62.5 nM [29]: 0.312
- CNS-to-blood efflux (multiple-time uptake studies, loss of linearity): presence of CNS-to-blood efflux
Structure (SMILES): CN(C)C(N)=NCCC[C@H](N)C(=O)O [ADMA, N^G,N^G-dimethylarginine dihydrochloride]
- uptake into caudate nucleus [2]: 0.09268 and 0.2487 and 0.1281 and 0.07499 and 0.1274
- uptake into choroid plexus [2]: 0.5413 and 0.9894 and 0.4672 and 0.3444 and 0.47
- uptake into frontal cortex [2]: 0.1003 and 0.2556 and 0.1339 and 0.07655 and 0.1326
- uptake into occipital cortex [2]: 0.1057 and 0.2389 and 0.1237 and 0.07486 and 0.1517

— PMC11501026, “L-Arginine and asymmetric dimethylarginine (ADMA) transport across the mouse blood-brain and blood-CSF barriers: Evidence of saturable transport at both interfaces and CNS to blood efflux” (PLOS ONE, 2024)
